Residues, ends and D or L forms follow the SMILES beside them. *: point of attachment. Cbz = O=C(OCc1ccccc1)*

One experiment concerns the target T1, HSL (Mus musculus, UniProt P54310).
T1 construct: freshly dissected adipose tissue explants from BALB/c or B6 ob/ob inguinal fat pad; from tissue; host or cells: inguinal fat pad (white adipose tissue) explants of BALB/c and C57BL/6J ob/ob (Agrp-/-) mice
T1 sequence (P54310 1-759): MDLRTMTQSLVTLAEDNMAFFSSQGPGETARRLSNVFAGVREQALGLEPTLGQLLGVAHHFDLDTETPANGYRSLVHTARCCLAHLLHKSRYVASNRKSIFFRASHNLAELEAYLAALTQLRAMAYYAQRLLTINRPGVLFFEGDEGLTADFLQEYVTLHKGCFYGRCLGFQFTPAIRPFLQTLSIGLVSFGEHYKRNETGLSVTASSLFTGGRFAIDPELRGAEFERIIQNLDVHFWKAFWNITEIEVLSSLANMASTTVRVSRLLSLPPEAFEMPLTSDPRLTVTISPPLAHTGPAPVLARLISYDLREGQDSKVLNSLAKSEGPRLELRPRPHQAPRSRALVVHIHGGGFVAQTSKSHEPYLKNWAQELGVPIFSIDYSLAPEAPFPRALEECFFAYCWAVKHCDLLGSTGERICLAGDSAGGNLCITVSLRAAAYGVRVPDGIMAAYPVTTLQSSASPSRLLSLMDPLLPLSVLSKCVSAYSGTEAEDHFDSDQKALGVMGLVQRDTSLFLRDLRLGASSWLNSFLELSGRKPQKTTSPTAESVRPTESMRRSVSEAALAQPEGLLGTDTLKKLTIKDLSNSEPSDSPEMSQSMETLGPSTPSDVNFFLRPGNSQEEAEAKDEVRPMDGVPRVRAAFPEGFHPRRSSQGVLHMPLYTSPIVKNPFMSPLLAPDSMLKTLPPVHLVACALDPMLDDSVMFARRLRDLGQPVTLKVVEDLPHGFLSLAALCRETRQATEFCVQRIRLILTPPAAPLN
Put plainly: Free fatty acid release (lipolysis) from adipose tissue explants with the HSL inhibitor. The format is cell-based. The source says: Free fatty acids (FFA) release from adipose tissue explants was further measured in presence or not of the HSL inhibitor CAY 10499. […] FFA release was compared from freshly dissected adipose tissue explants from BALB/c or B6 ob/ob inguinal fat pad. It was observed that FFA production was increased in explants from BALB/c relative to B6 ob/ob mice when HSL activity is inhibited by CAY10499. The same difference between BALB and B6 lipolysis (Δ^−CAY=[…] versus Δ^+CAY=397.1±8.1, P=0.31) without the HSL inhibitor (i.e. HSL+ATGL activity) or with CAY10499 (i.e. ATGL activity), respectively. […] Of note, the increased ATGL activity is greater than the increase in ATGL protein content in adipose tissue. This may be due to the concomitant increase of CGI-58 expression that is known to enhance ATGL lipolytic activity.

For a further experiment, the system named is ATGL. Put plainly: ATGL degradation in WAT fat fragments, anti-ATGL immunoblot. The format is cell-based, mouse. Particulars: for ATGL concentrations on co-treatment with cycloheximide: B6 ob/ob fat co-treated with cycloheximide and the inhibitor. On the procedure:
FIGS. 5A-5C. Regulation of ATGL expression through degradation pathways. (5A) ATGL mRNA level in WAT was determined by RT-qPCR (n=6). (5B) WAT fragments of BALB/c and B6 ob/ob mice were incubated for 5 hours with cycloheximide (CHX) and WAT protein lysates were immunoblotted using anti-ATGL to follow degradation rates of ATGL. (5C) B6 ob/ob WAT fragments were treated with MG132 (MG, proteasome inhibitor) and chloroquine (CQ, lysosome inhibitor). Protein extracts were analyzed by Western blot. Densitometry analysis was performed (5B,5C) and data are expressed as average ±SEM (n=6). Unpaired t-tests were performed, *P<0.05.
Thus, BALB/c ob/ob fat has long lived ATGL whereas C57BL/6 ob/ob fat has ATGL that is degraded within several hours. […] Thus, ATGL appears to be degraded by both the lysosomal and proteasomal pathways.
In general terms: A western blot detects proteins with antibodies after separation by electrophoresis.

Consider `COc1nn(-c2ccc(NC(=O)OCc3ccccc3)c(C)c2)c(=O)o1` [CAY10499], for which the “Lipolysis induced with selective β3AR agonist CL316,243” value at HSL (in presence of 100 μM CAY10499) is listed as “blunted”. Besides, the “Difference between BALB and B6 lipolysis (Δ+CAY), FFA release” value on HSL (inguinal fat pad explants of BALB/c vs B6 ob/ob with CAY10499 (i.e. ATGL activity), P=0.31 versus without inhibitor) was found to be 397.1±8.1.

Take `CC(C)C[C@@H](C=O)NC(=O)[C@H](CC(C)C)NC(=O)[C@H](CC(C)C)NC(=O)OCc1ccccc1` [MG-132] (Cbz-Leu-Leu-Leu-aldehyde): the “ATGL concentrations on co-treatment with cycloheximide” value in the experiment with ATGL is “ATGL concentrations persisted”.

Consider `CCN(CC)CCCC(C)Nc1ccnc2cc(Cl)ccc12` (stereo not drawn) [chloroquine], for which the “ATGL concentrations on co-treatment with cycloheximide” value in the experiment with ATGL was “ATGL concentrations persisted”.

Consider `C[C@@H]1C[C@@H]([C@H](O)CC2CC(=O)NC(=O)C2)C(=O)[C@@H](C)C1` [cycloheximide], for which, in the experiment with ATGL (fat fragments from B6 ob/ob mice, incubated 5 hours), the “ATGL concentrations after cycloheximide treatment” value is “dramatic reduction in ATGL concentrations”. For the same molecule, in the experiment with ATGL (fat fragments from BALB/c ob/ob mice, incubated 5 hours), the “ATGL amounts after cycloheximide treatment” value is recorded as “no alteration in ATGL amounts”.

The values are drawn from patent publication US20140294854A1, “TARGET DIRECTED TO ADIPOCYTES, METHODS AND ASSAYS FOR TREATMENT OF OBESITY” (priority 2011, published 2014).
